Blank lines part the entries; values can stand above or below the compound they belong to.
Columns and labels:
[1] = In vitro drug release profile (dialysis, pH 7.4 then pH 6.5); assay type: physicochemical; conditions: pH 7.4 PBS
Procedure: Drug release profile. STICK-NP@Cy@Gd was prepared to evaluate the in vitro release profile using dialysis cassettes (Pierce Chemical Inc.) with a 3 kDa MWCO. To make an ideal sink condition, 10 g charcoal was added in the release medium. The cassettes were dialyzed against PBS (pH7.4) at room temperature. The PBS at pH 7.4 was replaced with fresh PBS at pH 6.5 at 4 h. The concentration of CY7.5 and Gd-DTPA remaining in the dialysis cassette at various time points was measured by UV-vis spectroscopy and ICP-MS.

DIPG (PDX) cells = experiment: Anti-cancer efficacy in orthotopic PDX DIPG mouse model; assay type: in vivo, SCID mouse
Procedure: Anti-cancer efficacy study in orthotopic brain tumor models. […] After confirming the establishment of brain tumors, mice were randomly assigned into different groups. Tumor size was monitored using advanced T1-weight imaging (TR/TE=300 ms/15 ms). For imaging study, mice were injected with 250 mg/kg Gd-DTPA. Tumor size of DIPG model was calculated from the aggregation of tumor area in different MRI slices, 1 mm thick. Tumor size of GBM model was calculated as the followed equation: […]
where W is the width of the tumor and the L is the length of the tumor (W<L). One mouse per group was sacrificed on day 12 after MRI imaging, and organs and brain with tumors were harvested for histopathology evaluation. Animals were continuously monitored their appearance, behavior, and body weight. Once the body weight loss>20%, animals were considered as reaching the humane endpoint.

[2] = Pharmacokinetic study in jugular vein catheterized rats; assay type: in vivo; conditions: Cy7.5 10 mg/kg, serum
Procedure: FIGS. 2A and 2B show cumulative release profile for both hydrophilic (Gd-DTPA) (FIG. 2A) and hydrophobic (Cy7.5) payloads (FIG. 2B) from STICK-NPs and NM in the presence of different pH. A mixture of NM and free Gd was used in (FIG. 2A), as Gd could not be loaded into NM. Drug release study was performed initially at pH 7.4 PBS (grey areas) and was then subjected to pH 6.5 after 4 h (pink areas). Samples were collected at different time points and were measured by inductively coupled plasma mass spectrometry (ICP-MS) for Gd-DTPA level and fluorescence spectrometer for the concentration of Cy7.5. (n=3). […] (n=3) FIG. 2E show the intensity-weighted distribution changes of STICK-NPs in the presence of different concentrations of glucose (mmol/L). Of note, normal human serum glucose level ranges from 3.9 to 5.5 mmol/L. FIG. 2F show pharmacokinetic profiles of free Cy7.5, STICK-NP@Cy, and NM@Cy (Cy7.5, 10 mg/kg) in jugular vein catheterized rats (n=3). Serum was collected at different time points, and drug concentrations were measured based on fluorescence signals. The error bars were the standard deviation (SD).

U87-MG cells = experiment: Cellular uptake assay in brain tumor cells; assay type: cell-based, human; conditions: pH 6.5 versus pH 7.4, Cy7.5 0.1 mg/mL
Procedure: To study the cellular uptake of STICK-NP@Cy, the bEnd.3 cells or U87-MG cells were seeded on 8-well chamber slides (10000 cells/well) and treated with STICK-NP@Cy and other controls (0.1 mg/mL Cy7.5) for 1 hour and washed by PBS three times. Cells were then fixed and stained with DAPI. Cell imaging was acquired using a Keyence fluorescence microscope. For quantitative study, bEnd.3 cells or U87-MG cells (10000 cells/well) were seeded in 96 well plate for overnight and then treated the cells with STICK-NP@Cy and other controls (0.1 mg/mL Cy7.5). Cells were harvested at 0 h, 1 h, 2 h, 3 h, and 4 h and washed with PBS. Total cells were lysed with 100 μL DMSO and the fluorescence intensity was measured by fluorescence spectrophotometer (RF-6000, Shimazu, Japan). To inhibit GLUT1 activity, bEnd.3 cells were pretreated with 40 μM of WZB-117 for 24 h before incubation with STICK-NP@Cy. For the tumor uptake study, U87-MG cells were pretreated with 40 μM of AZT for 24 h to alter the expression of surface sialic acid. To block the interaction, U87-MG cells were pre-incubated with excess free CBA (80 μM) for 24 h to compete for the binding sites with STICK-NP@Cy (pH 6.5) through the CBA targeting moiety in the secondary smaller micelles.

- Release of Gd-DTPA [1]: released immediately
Compound: CNC[C@H](O)[C@@H](O)[C@H](O)[C@H](O)CO.CNC[C@H](O)[C@@H](O)[C@H](O)[C@H](O)CO.O=C([O-])CN(CCN(CC(=O)[O-])CC(=O)O)CCN(CC(=O)[O-])CC(=O)O.[Gd+3] [free Gd-DTPA, gadopentetic acid]

Compound: CC[C@]1(O)C[C@H]2CN(CCc3c([nH]c4ccccc34)[C@@](C(=O)OC)(c3cc4c(cc3OC)N(C=O)[C@H]3[C@@](O)(C(=O)OC)[C@H](OC(C)=O)[C@]5(CC)C=CCN6CC[C@]43[C@@H]65)C2)C1 [free VCR, vincristine]
- Effect on tumor growth (DIPG (PDX) cells; MRI, compared to PBS control): minimal inhibition effects
- Extension of survival compared to PBS control (DIPG (PDX) cells; mouse, in vivo): failed to extend the survival
- Survival of mice beyond day 12 (DIPG (PDX) cells; mouse, in vivo): died after day 12

- AUC(0-∞) [2]: 51400 ± 13400 ng·h/mL
- Cmax [2]: 4190 ± 400 ng/mL
- Vz [2]: 2.46 ± 0.51 L/kg
- t1/2z [2]: 16.92 ± 0.78 h
Compound: cyanine 7.5 [Free Cy]
- U87-MG cell uptake after pretreatment with pH 6.5 (U87-MG cells): no significant enhancement

Reference: US20230076792A1, “SEQUENTIAL TARGETING IN CROSSLINKING NANO-THERANOSTICS FOR TREATING BRAIN TUMORS” (The Regents of the University of California, priority 2019, published 2023)
